Measurements as given in ChEMBL document CHEMBL1152306, “Characterization of novel furan compounds on the basis of their radical scavenging activity and cytoprotective effects against glutamate- and lipopolysaccharide-induced insults” (Bioorg Med Chem, 2008).
Calls of active or inactive are those of the source. The calls are words filed in the database; no cut-off is given here.

Assays:
[1] = target: T1, Polyunsaturated fatty acid 5-lipoxygenase (Homo sapiens, UniProt P09917); experiment: Inhibition of 5LOX
T1 sequence (P09917 whole entry): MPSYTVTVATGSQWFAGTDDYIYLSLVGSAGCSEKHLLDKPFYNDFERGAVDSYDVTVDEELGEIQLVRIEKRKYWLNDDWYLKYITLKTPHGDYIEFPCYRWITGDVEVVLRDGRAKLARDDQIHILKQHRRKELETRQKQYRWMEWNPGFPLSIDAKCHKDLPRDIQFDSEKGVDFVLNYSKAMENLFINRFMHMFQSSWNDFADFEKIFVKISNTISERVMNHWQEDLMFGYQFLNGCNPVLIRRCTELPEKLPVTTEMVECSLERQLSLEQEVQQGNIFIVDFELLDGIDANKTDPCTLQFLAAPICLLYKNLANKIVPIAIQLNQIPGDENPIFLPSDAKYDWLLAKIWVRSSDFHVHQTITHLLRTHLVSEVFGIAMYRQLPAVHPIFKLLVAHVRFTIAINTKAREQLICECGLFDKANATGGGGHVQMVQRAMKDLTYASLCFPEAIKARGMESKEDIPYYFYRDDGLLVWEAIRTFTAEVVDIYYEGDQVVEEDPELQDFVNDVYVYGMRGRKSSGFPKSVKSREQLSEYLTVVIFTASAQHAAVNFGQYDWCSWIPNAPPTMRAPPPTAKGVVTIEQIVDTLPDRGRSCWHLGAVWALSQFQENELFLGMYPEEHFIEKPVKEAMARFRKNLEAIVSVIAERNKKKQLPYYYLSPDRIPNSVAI

Cerebral cortex neuron [2] = experiment: Neuroprotective activity against glutamate-induced neuronal cell death in Sprague-Dawley rat primary cortical neuron at 0.25 uM pretreated for 24 hrs prior to glutamate challenge measured after 24 hrs by MTT assay; format: functional, cell-based
Cerebral cortex neuron [3] = experiment: Neuroprotective activity against glutamate-induced neuronal cell death in Sprague-Dawley rat primary cortical neuron at 0.25 uM administered simultaneously with glutamate after 24 hrs by MTT assay; format: functional, cell-based
THP-1 = experiment: Cytoprotective activity against LPS-induced cell death in human THP1 cells at 10 uM pretreated for 24 hrs prior to LPS challenge measured after 24 hrs by MTT assay; format: functional, cell-based
[4] = target: Prostaglandin G/H synthase 1 (Homo sapiens, UniProt P23219); experiment: Inhibition of COX1
[5] = target: T2, Prostaglandin G/H synthase 2 (Homo sapiens, UniProt P35354); experiment: Inhibition of COX2
T2 sequence (P35354 whole entry): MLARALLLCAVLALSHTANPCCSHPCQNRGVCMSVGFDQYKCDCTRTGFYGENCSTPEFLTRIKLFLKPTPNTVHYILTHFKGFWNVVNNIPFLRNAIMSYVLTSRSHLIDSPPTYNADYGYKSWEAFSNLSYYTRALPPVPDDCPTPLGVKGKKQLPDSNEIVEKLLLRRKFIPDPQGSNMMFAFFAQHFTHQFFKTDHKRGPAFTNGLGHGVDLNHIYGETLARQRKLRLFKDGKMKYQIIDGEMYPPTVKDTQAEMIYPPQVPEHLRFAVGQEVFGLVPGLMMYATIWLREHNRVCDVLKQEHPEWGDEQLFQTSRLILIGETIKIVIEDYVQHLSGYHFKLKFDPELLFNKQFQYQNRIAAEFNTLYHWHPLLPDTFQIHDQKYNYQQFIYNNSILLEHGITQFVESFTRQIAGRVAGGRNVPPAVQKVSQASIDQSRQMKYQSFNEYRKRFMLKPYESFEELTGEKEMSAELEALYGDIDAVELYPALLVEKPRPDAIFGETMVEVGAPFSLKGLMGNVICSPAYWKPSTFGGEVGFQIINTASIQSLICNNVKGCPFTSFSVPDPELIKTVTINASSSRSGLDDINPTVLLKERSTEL

[6] = Radical scavenging activity assessed as suppression of MeO-AMVN-induced beta-carotene oxidation in benzene solution; format: physicochemical
[7] = Radical scavenging activity assessed as rate constant; format: physicochemical
[8] = Radical scavenging activity assessed as relative reactivity against beta-carotene in benzene solution; format: physicochemical
[9] = Radical scavenging activity assessed as relative reactivity against beta-carotene in 2,2-azobis[2-(2-imidazolin-2-yl)-propane]dihydrochloride solution; format: physicochemical
[10] = Radical scavenging activity assessed as relative reactivity against beta-carotene in MeO-AMVN solution; format: physicochemical
PC-12 [11] = experiment: Cytoprotective activity against 6-OHDA-induced cell death in rat PC12 cells at 25 uM pretreated for 24 hrs prior to 6-OHDA challenge measured after 24 hrs by MTT assay; format: functional, cell-based
PC-12 [12] = experiment: Cytoprotective activity against 6-OHDA-induced cell death in rat PC12 cells at 50 uM pretreated for 24 hrs prior to 6-OHDA challenge measured after 24 hrs by MTT assay; format: functional, cell-based
PC-12 [13] = experiment: Cytoprotective activity against 13(S)-HpODE-induced cell death in rat PC12 cells pretreated for 24 hrs prior to 13(S)-HpODE challenge measured after 24 hrs by MTT assay; format: functional, cell-based
PC-12 [14] = experiment: Cytoprotective activity against LPS-induced cell death in rat PC12 cells at 1 to 50 uM pretreated for 24 hrs prior to LPS challenge measured after 24 hrs by MTT assay; format: functional, cell-based
Cerebral cortex neuron [15] = experiment: Neuroprotective activity against glutamate-induced neuronal cell death in Sprague-Dawley rat primary cortical neuron at 2.5 uM pretreated for 24 hrs prior to glutamate challenge measured after 24 hrs by MTT assay; format: functional, cell-based
Cerebral cortex neuron [16] = experiment: Neuroprotective activity against glutamate-induced neuronal cell death in Sprague-Dawley rat primary cortical neuron at 1 uM pretreated for 24 hrs prior to glutamate challenge measured after 24 hrs by MTT assay; format: functional, cell-based
Cerebral cortex neuron [17] = experiment: Neuroprotective activity against glutamate-induced neuronal cell death in Sprague-Dawley rat primary cortical neuron at 1 uM administered simultaneously with glutamate after 24 hrs by MTT assay; format: functional, cell-based

Chain of Prostaglandin G/H synthase 1 (P23219 whole entry): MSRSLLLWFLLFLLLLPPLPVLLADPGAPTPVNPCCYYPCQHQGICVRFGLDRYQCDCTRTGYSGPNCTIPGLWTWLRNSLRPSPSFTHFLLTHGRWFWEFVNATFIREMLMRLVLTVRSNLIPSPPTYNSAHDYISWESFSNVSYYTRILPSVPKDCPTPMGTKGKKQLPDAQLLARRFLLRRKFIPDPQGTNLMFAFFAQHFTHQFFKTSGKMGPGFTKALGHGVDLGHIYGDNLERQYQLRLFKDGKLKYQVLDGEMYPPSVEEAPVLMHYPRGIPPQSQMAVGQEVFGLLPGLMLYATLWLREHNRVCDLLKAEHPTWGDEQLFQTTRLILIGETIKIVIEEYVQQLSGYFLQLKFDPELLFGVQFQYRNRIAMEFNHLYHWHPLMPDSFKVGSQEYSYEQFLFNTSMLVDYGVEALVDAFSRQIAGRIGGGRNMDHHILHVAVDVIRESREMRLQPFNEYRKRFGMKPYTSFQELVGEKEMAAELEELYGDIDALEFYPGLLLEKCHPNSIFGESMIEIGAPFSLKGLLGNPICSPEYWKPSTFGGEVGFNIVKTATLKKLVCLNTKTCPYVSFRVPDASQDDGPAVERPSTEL

| IC50 [1] [µM] | IC50 [4] [µM] | IC50 [5] [µM] | Activity [6] | K [7] | Activity [8] | Activity [9] | Activity [10] | SMILES | Activity (THP-1) | Activity (PC-12 [13]) | Activity (PC-12 [14]) | also measured |
| --- | --- | --- | --- | --- | --- | --- | --- | --- | --- | --- | --- | --- |
|  |  |  |  | 1 ×10⁶ /M/s |  |  |  | Cc1c(C)c2c(c(C)c1O)CC[C@@](C)(CCC[C@H](C)CCC[C@H](C)CCCC(C)C)O2 [ALPHA-TOCOPHEROL] |  |  |  | Activity (Cerebral cortex neuron [15]): Active |
| 2.6 | 62 | 8.4 | Dose-dependent effect | 3 ×10⁴ /M/s | 0.62 | 1 | 1.3 | CCCCCCc1ccc(-c2ccc(O)c(OC)c2)o1 | Active | Active | Active | Activity (Cerebral cortex neuron [16]): Active; Activity (Cerebral cortex neuron [17]): Active |
|  | 129 | 125 |  |  |  |  |  | CCCCC[C@H](O)CC(=O)CCc1ccc(O)c(OC)c1 [GINGEROL] |  |  |  |  |

Continued, molecule first:

| SMILES | IC50 [1] [µM] | IC50 [4] [µM] | IC50 [5] [µM] | Activity [6] | K [7] | Activity [8] | Activity [9] | Activity [10] | Activity (THP-1) | Activity (PC-12 [13]) | Activity (PC-12 [14]) | also measured |
| --- | --- | --- | --- | --- | --- | --- | --- | --- | --- | --- | --- | --- |
| CCCCC/C=C/C(=O)CCc1ccc(O)c(OC)c1 [SHOGAOL] | 7.4 |  |  |  |  |  |  |  |  |  |  |  |
| CC(C)=CCC/C(C)=C/CC/C(C)=C/CC[C@]1(C)CCc2c(C)c(O)c(C)c(C)c2O1 |  |  |  |  |  |  |  |  |  |  |  | Activity (Cerebral cortex neuron [2]): Active; Activity (Cerebral cortex neuron [3]): Active |
| CCc1ccc(-c2ccc(O)c(OC)c2)o1 | 0.53 | 13 | 9.4 | Dose-dependent effect | 2 ×10⁴ /M/s | 0.58 | 0.69 | 1.1 | Active | Active | Active | Activity (PC-12 [11]): Active; Activity (PC-12 [12]): Active |
